Experimental findings from paper PMC2775898 (The EMBO Journal, 2009) are described below.

Where a SMILES comes first, the peptide text is derived from it. The star is where a group is joined. Biotin = O=C1N[C@H]2[C@H](CS[C@H]2CCCCC(=O)*)N1

This test deals with T1, Tiam2 PHCCEx domain (Mus musculus, UniProt Q6ZPF3).
T1 sequence (Q6ZPF3 500-757): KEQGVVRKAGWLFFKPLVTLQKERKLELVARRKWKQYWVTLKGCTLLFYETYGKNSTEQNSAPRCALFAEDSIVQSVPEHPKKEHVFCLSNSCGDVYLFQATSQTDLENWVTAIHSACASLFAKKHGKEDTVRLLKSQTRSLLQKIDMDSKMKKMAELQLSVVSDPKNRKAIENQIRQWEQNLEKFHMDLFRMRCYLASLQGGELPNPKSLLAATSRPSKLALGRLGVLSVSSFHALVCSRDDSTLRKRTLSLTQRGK
Kind of test: Equilibrium SPR binding of biotinylated peptides to the Tiam2 PHCCEx domain. Particulars: N-terminal biotinylated peptide immobilized. (In general: Surface plasmon resonance follows binding to a sensor surface in real time, without labels.)
For the molecule `CC[C@H](C)[C@H](NC(=O)[C@H](CC(=O)O)NC(=O)[C@H](CO)NC(=O)[C@@H]1CCCN1C(=O)[C@H](CCC(=O)O)NC(=O)[C@@H](NC(=O)CNC(=O)[C@H](C)NC(=O)CCCC[C@@H]1SC[C@@H]2NC(=O)N[C@@H]21)[C@@H](C)O)C(=O)N[C@H](C(=O)N[C@H](C(=O)N1CCC[C@H]1C(=O)N[C@@H](CC(C)C)C(=O)N[C@@H](CCCNC(=N)N)C(=O)N[C@H](C(=O)N[C@H](C(=O)N[C@@H](CCC(=O)O)C(=O)N[C@@H](CC(N)=O)C(=O)N[C@@H](CC(N)=O)C(=O)N[C@@H](Cc1ccc(O)cc1)C(=O)O)[C@@H](C)O)[C@@H](C)O)[C@@H](C)CC)[C@@H](C)CC` [ephrin B1 294–312] (Biotin-AGTEPSDIIIPLRTTENNY-OH; C-terminus assumed), the “Binding to the Tiam2 PHCCEx domain (in words)” value was “in the micromolar range”. For `CC[C@H](C)[C@H](NC(=O)[C@@H](NC(=O)[C@H](CC(=O)O)NC(=O)[C@H](CO)NC(=O)[C@@H]1CCCN1C(=O)[C@H](CCC(=O)O)NC(=O)[C@H](CO)NC(=O)CNC(=O)[C@H](CC(N)=O)NC(=O)CCCC[C@@H]1SC[C@@H]2NC(=O)N[C@@H]21)C(C)C)C(=O)N[C@H](C(=O)N1CCC[C@H]1C(=O)N[C@@H](CC(C)C)C(=O)N[C@@H](CCCNC(=N)N)C(=O)N[C@H](C(=O)N[C@@H](C)C(=O)N[C@@H](CC(=O)O)C(=O)N[C@@H](CO)C(=O)N[C@H](C(=O)N[C@@H](Cc1ccccc1)C(=O)O)C(C)C)[C@@H](C)O)[C@@H](C)CC` [ephrin B2 285–302] (Biotin-NGSEPSDVIIPLRTADSVF-OH; C-terminus assumed), the “Binding to the Tiam2 PHCCEx domain (in words)” value is “in the micromolar range”. Next, `CC[C@H](C)[C@H](NC(=O)CNC(=O)[C@H](CC(C)C)NC(=O)[C@H](CCC(=O)O)NC(=O)CNC(=O)[C@@H]1CCCN1C(=O)[C@H](CCC(=O)O)NC(=O)[C@H](C)NC(=O)[C@H](CCC(=O)O)NC(=O)[C@H](CCCNC(=N)N)NC(=O)CCCC[C@@H]1SC[C@@H]2NC(=O)N[C@@H]21)C(=O)N[C@@H](C)C(=O)N[C@@H](CC(C)C)C(=O)N[C@@H](CCCNC(=N)N)C(=O)NCC(=O)NCC(=O)NCC(=O)N[C@H](C(=O)N[C@@H](C)C(=O)N[C@@H](CC(=O)O)C(=O)O)[C@@H](C)O` [ephrin B3 286–303] (Biotin-REAEPGELGIALRGGGTAD-OH; C-terminus assumed): “weaker binding”.
